Consider 3 compounds from PMC10095824, “Design and Synthesis of 3-(β-D-Glucopyranosyl)-4-amino/4-guanidino Pyrazole Derivatives and Analysis of Their Glycogen Phosphorylase Inhibitory Potential” (Molecules, 2023).

Where two headings read alike, the source gives them in different places.

The target in test [1] is T1, rabbit muscle glycogen phosphorylase b (rmGPb) (Oryctolagus cuniculus, UniProt P00489).
T1 sequence (P00489 1-843): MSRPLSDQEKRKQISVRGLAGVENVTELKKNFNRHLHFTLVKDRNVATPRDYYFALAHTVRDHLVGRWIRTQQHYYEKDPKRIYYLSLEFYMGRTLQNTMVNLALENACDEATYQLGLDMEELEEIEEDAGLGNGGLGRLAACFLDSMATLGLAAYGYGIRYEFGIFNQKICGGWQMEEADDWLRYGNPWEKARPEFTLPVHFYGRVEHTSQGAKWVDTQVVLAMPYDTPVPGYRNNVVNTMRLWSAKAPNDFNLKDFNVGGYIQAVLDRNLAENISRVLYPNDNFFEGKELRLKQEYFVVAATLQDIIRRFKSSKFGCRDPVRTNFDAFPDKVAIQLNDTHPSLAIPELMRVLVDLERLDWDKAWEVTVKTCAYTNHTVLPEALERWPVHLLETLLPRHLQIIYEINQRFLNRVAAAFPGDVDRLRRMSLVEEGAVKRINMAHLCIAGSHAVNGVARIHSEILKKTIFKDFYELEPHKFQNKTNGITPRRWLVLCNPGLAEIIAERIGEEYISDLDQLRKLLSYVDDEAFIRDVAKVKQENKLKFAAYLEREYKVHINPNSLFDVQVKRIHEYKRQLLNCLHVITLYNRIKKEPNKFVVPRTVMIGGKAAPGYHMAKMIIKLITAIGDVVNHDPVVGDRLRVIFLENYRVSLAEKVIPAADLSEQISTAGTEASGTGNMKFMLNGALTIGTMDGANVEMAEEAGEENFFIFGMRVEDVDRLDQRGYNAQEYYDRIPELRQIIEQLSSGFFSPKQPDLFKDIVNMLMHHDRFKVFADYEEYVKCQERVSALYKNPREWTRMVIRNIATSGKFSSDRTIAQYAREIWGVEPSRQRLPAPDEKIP
Details: method as in PMID 26713107. The settings on record: cited from earlier work.

Test [2] concerns the target T1, rabbit muscle glycogen phosphorylase b (rmGPb). As to the kind of experiment: Glycogen phosphorylase binding assay (enzyme kinetics in the direction of glycogen synthesis). It counts as biochemical. The protocol:
The determined IC50 values are shown in Table 1, together with the previously determined Ki value for benchmark compound 1. […] Towards understanding the observed potencies, extensive computations on the bound and unbound states of the ligands were performed.
Enzyme activity was assayed into the direction of glycogen synthesis as previously presented. Kinetic data were collected using the muscle phosphorylase b (dephosphorylated, GPb) isoform. Kinetic data for the inhibition of GPb by the compounds were obtained in the presence of 10 μg/mL enzyme, varying concentrations of α-D-glucose-1-phosphate (4–40 mM), constant concentration (1%) of glycogen and AMP (1 mM). Enzymatic activities were presented in the form of a double-reciprocal plot (Lineweaver-Burk). The plots were analysed by a non-linear data analysis program. The inhibitor constants (Ki) were determined by secondary plots, replotting the slopes from the Lineweaver-Burk plot against the inhibitor concentrations. The means of standard errors for all calculated kinetic parameters averaged to less than 10% [48, 49].

As for `OC[C@H]1O[C@@H](c2cc(-c3ccccc3)n[nH]2)[C@H](O)[C@@H](O)[C@@H]1O` [Compound 2], the IC50 in test [1] was 850 µM. `Nc1c([C@@H]2O[C@H](CO)[C@@H](O)[C@H](O)[C@H]2O)n[nH]c1-c1ccccc1` [Compound 3, 4-Amino-3-(β-D -glucopyranosyl)-5-phenyl-1H-pyrazole] came in with an IC50 in test [2] (rmGPb) of 565 µM. As for `N=C(N)Nc1c([C@@H]2O[C@H](CO)[C@@H](O)[C@H](O)[C@H]2O)n[nH]c1-c1ccccc1` [Compound 4, 3-(β-D -Glucopyranosyl)-4-guanidino-5-phenyl-1H-pyrazole], the “inhibition of rmGPb” value in test [2] (at 625 µM concentration, 625 µM) was “no inhibition at 625 µM”.

What is called IC50 is the point on the concentration scale where inhibition reaches its midpoint.
